Measurements as given in patent US11118208B2, “Methods for modulating protein galactosylation profiles of recombinant proteins using peracetyl galactose” (ARES TRADING S.A., priority 2016, dated 2021).

What was measured:
[1] = system: mAb1 cells (CHO-S cells expressing IgG1 mAb1); experiment: Fed-batch culture of mAb1 cells in TubeSpin (shake tubes): viable cell density, viability, titer; type: cell-based, Chinese hamster; conditions: shake tubes
Method: (§1) First assays were performed with an antibody produced in a CHO cell line: CHO-S cells expressing IgG1 mAb1, herein “Cells mAb1” or “mAb1 cells”. “mAb1” is a fully human monoclonal antibody directed against a soluble protein. Its isoelectric point (pI) is about 8.20-8.30.
(§2) Cells expressing mAb1 were inoculated at 0.3×10^6 cells per millilitre (mL), whereas Cells expressing mAb2 were inoculated at 0.2×10^6 cells per millilitre (mL).
(§3) For examples 1-3: A serum-free chemically defined culture medium was used. It was used as it is, or it was supplemented with α- or β-2-F-peracetyl galactose (herein α- or β-2F-pGal; Biosynth & AX Molecules) at different concentrations (0-200 μM before seeding). The concentrations indicated on FIGS. 1, 2, 3 and 4 are the concentrations in α- or β-2F-pGal in the culture medium at day 0, just before the inoculation. The culture medium was fed, on a regular basis, with a chemically defined feed medium, as well as with glucose in order to keep said glucose level in the range of >0 to about 8 g/L (feeds are done at days 3, 5, 7, 10 and 12).
(§4) The cultures were performed in deepwell plates (DWP) with a working volume of 450 μL. They were incubated at 36.5° C., 5% de CO2, 90% humidity and shaken at 320 rpm. Each of the fed-batch culture lasted 14 days. It is well known that experiments in DWP are artificial, although they allow a first screening of culture conditions. In order to confirm that the results obtained in DWP were reproducible at higher scale, similar experiments were also run in TubeSpin® (also called herein shake tubes or ST), with a working volume of 30 mL cell culture (same culture condition than for deepwell plates).
(§5) For TubeSpin® experiments, viable cell density and viability were measured with the ViCell®. Antibody titers were measured using Biacore®.

[2] = system: galactosylation of mAb1 antibody (mAb1 cells); experiment: Glycosylation profile of mAb1 produced in DWP (CGE-LIF); type: cell-based, Chinese hamster
Method: as §1, §3, §4
(§6) Glycosylation profiles were established by capillary gel electrophoresis with laser-induced fluorescence (CGE-LIF; for DWP and for Shake tubes experiments) or by Ultra Performance Liquid Chromatography-2-amino-benzamide labelling technique (2AB-UPLC; for Shake tubes experiments). Groups of glycans were defined as thereafter in Table 3.
(§7) The cells were cultivated and the results analysed as disclosed in the material and method section. It is noted that the controls (or control conditions) according to the present invention correspond to cells grown without peracetyl galactose.

[3] = system: mAb1 cells (CHO-S cells expressing IgG1 mAb1); experiment: Fed-batch culture of mAb1 cells in deepwell plates (DWP): viable cell density, viability, titer; type: cell-based, Chinese hamster
Method: as §1, §2, §3, §4
For DWP experiments, viable cell density and viability were measured with the Guava easyCyte® flow cytometer. Antibody titers were measured with the fortéBIO Octet®.
as §7

[4] = system: galactosylation of mAb1 antibody (cell line 1); experiment: Glycosylation profile of mAb1, supplementation as feed after the start of the culture (CGE-LIF); type: cell-based, Chinese hamster
Source text: (§8) For example 4: Additional experiments were run in similar conditions, except with regard to supplementation with α- or β-2-F-peracetyl galactose. In such a case, a serum-free chemically defined culture medium was used, supplemented with α- or β-2-F-peracetyl galactose as mentioned thereafter in Table 2.
as §6

[5] = system: mAb1 cells (cell line 1); experiment: Fed-batch culture of mAb1 cells, supplementation as feed after the start of the culture: cell density, viability, titer; type: cell-based, Chinese hamster
Method: as §8, §4, §5
Rather than supplementing the medium prior to inoculation, it was decided to start the galactose analog addition on day 3, 5 or 7 (respectively β-2F-pGal-d3, β-2F-pGal-d5 and β-2F-pGal-d7; see Table 2). Cell line 1 was used for these experiments. […] The peak cell densities were reached on day 7. No significant difference between the control and the β-2F-pGal-d3 supplemented cultures was observed. They both levelled off at 20.8 and 21.2×10^6 viable cells/mL, respectively. […] Overall, it can be assumed that the presence of β-2F-p-galactose induced limited changes on cell growth until day 7. In the second half of the culture, both the cell density and the viability (FIG. 11B) are correlated with the feed timing. Supplementation on day 3 most strongly impacted the course of the culture. At harvest, the cell density amounted to 9.8×10^6 viable cells/mL (control: 11.8×10^6 viable cells/mL). […] Feed addition on day 5 and 7, respectively, entailed viabilities on day 14 of 78 and 90% (control: 93%). According to FIG. 11C, no clear titer trend came forward. Early supplementation induced a slight titer increase on days 7 and 10, but then reduced productivity at later stages of the culture.

[6] = system: galactosylation of mAb1 antibody (mAb1 cells); experiment: Glycosylation profile of mAb1 produced in TubeSpin (CGE-LIF); type: cell-based, Chinese hamster
Method: as §1, §3, §4, §6

[7] = system: CDC activity; conditions: degalactosylated antibody; cited from earlier work

CC(=O)OC[C@H]1O[C@@H](OC(C)=O)[C@H](F)[C@@H](OC(C)=O)[C@H]1OC(C)=O [β-2F-pGal, α/β-D-galactopyranose, 2-deoxy-2-fluoro-,1,3,4,6-tetraacetate]
peak viable cell density at day 7 ([1]; 60 μM): 12.8 ×10^6 viable cells/mL
product titer at the end of the culture (day 14) ([1]; 60 μM, listed as β-2F-p-galactose): 2225 mg/L
effect on cell culture performance ([1]; between 0 and 90 μM α-2F-p-galactose, 60 μM β-2F-p-galactose): No detrimental effect
protein titer compared to the control at culture days 5, 7, 10, 12 and 14 ([1]; α 30-90 μM, β 60 μM, listed as β-2F-p-galactose): comparable to the control
G1F absolute change compared to the control ([2]; 30 μM): 1.1%
G2F absolute change compared to the control ([2]; 30 μM): 0.20%
absolute change in galactosylated N-oligosaccharide compared to the control ([2]; 30 μM): 2.2%
relative decrease of galactosylated N-oligosaccharides compared to control ([2]; 30 μM): 22%
galactosylated N-oligosaccharides of the protein ([2]; 30 μM in medium): 8.3%
G1F absolute change compared to the control ([2]; 60 μM): 2.5%
G2F absolute change compared to the control ([2]; 60 μM): 0.30%
absolute change in galactosylated N-oligosaccharide compared to the control ([2]; 60 μM): 4.2%
relative decrease of galactosylated N-oligosaccharides compared to control ([2]; 60 μM): 40%
galactosylated N-oligosaccharides of the protein ([2]; 60 μM in medium): 6.4%
G1F absolute change compared to the control ([2]; 120 μM): 3.1%
G2F absolute change compared to the control ([2]; 120 μM): 0.33%
absolute change in galactosylated N-oligosaccharide compared to the control ([2]; 120 μM): 5.4%
relative decrease of galactosylated N-oligosaccharides compared to control ([2]; 120 μM): 52%
galactosylated N-oligosaccharides of the protein ([2]; 120 μM in medium): 5.1%
G1F absolute change compared to the control ([2]; 200 μM): 4.4%
G2F absolute change compared to the control ([2]; 200 μM): 0.40%
absolute change in galactosylated N-oligosaccharide compared to the control ([2]; 200 μM): 6.7%
relative decrease of galactosylated N-oligosaccharides compared to control ([2]; 200 μM): 64%
galactosylated N-oligosaccharides of the protein ([2]; 200 μM in medium): 3.9%
inhibition effect on galactosylation ([2]; below 30): neither α- or β-2F-pGal does have a significant inhibition effect on galactosylation
inhibition effect on galactosylation ([2]; concentrations higher than 30 μM): a significant inhibition effect is observed
decrease of titers comparing to control ([3]; concentration higher than 60 μM): about 1.2 factor
impact on protein titre ([3]; concentrations between 30 and 60): no impact on protein titre
impact on cell growth ([3]; concentrations of about 60 μM and higher): negative impact on cell growth
impact on cell growth until the end of culture ([3]; concentrations up to 30 μM in medium): no impact on cell growth
protein titer compared to the control ([3]; media concentration up to 60 μM, day 10 and day 14): stays above the protein titer of the control
impact on cell density, cell viability and protein titer ([3]; media concentrations below 30 μM): do not impact
effects on the other glycan species ([4]; feed after the start of the culture): remained small
di-galactosylated entity decrease ([4]; feed from day 3): −0.41
mono-galactosylated species drop ([4]; feed from day 3): −8.0%
overall galactosylation decrease (absolute change vs control) ([4]; feed from day 3 (β-2F-pGal-d3)): −8.5%
di-galactosylated entity decrease ([4]; feed from day 5): −0.33
mono-galactosylated species drop ([4]; feed from day 5): −6.7%
overall galactosylation decrease (absolute change vs control) ([4]; feed from day 5 (β-2F-pGal-d5)): −7.0%
di-galactosylated entity decrease ([4]; feed from day 7): −0.19
mono-galactosylated species drop ([4]; feed from day 7): −4.4%
overall galactosylation decrease (absolute change vs control) ([4]; feed from day 7 (β-2F-pGal-d7)): −4.6%
cell density at harvest ([5]; feed from day 3 (β-2F-pGal-d3)): 9.8 ×106 viable cells/mL
protein titer (yield of the culture) ([5]; feed from day 3 (β-2F-pGal-d3)): 2560 mg/L
viability ([5]; feed from day 3 (β-2F-pGal-d3), second half of culture): below 60%
peak cell density (day 7) ([5]; feed from day 3 (β-2F-pGal-d3: days 3, 5, 7, 10)): 21.2 ×106 viable cells/mL
protein titer (yield of the culture) ([5]; feed from day 5 (β-2F-pGal-d5)): 3215 mg/L
viability on day 14 ([5]; feed from day 5 (β-2F-pGal-d5)): 78%
maximum cell density ([5]; feed from day 5 (β-2F-pGal-d5: days 5, 7, 10)): 18.6 ×106 viable cells/mL
protein titer (yield of the culture) ([5]; feed from day 7 (β-2F-pGal-d7)): 2100 mg/L
viability on day 14 ([5]; feed from day 7 (β-2F-pGal-d7: days 7, 10)): 90%
total level of galactosylation decreased by (Example 2.2) ([6]; 60 μM β anomer, shake tubes, CGE-LIF, unit not given): −5.0
absolute change of galactosylated N-oligosaccharides compared to the control ([6]; 60 μM, TubeSpin): around 4%
monogalactosylated form changed by (Example 2.2) ([6]; 60 μM, shake tubes, CGE-LIF, listed as β-2F-peracetyl-galactose): −4.7%

Rituxan: recombinant IgG whose degalactosylation was studied for CDC (Hodoniczky et al., 2005)
change of CDC after degalactosylation relative to unmodified control Mab [7]: reduced CDC by approximately half
